The values below come from publication PMC7747971 (Plant Communications, 2020).

The target in one test is AtTPS19 (Arabidopsis thaliana, UniProt Q9LUE0). Format: cell-based.
In a further test the target is T1, AtTPS22 (Arabidopsis thaliana, UniProt Q9LQ27).
T1 sequence (Q9LQ27 57-603): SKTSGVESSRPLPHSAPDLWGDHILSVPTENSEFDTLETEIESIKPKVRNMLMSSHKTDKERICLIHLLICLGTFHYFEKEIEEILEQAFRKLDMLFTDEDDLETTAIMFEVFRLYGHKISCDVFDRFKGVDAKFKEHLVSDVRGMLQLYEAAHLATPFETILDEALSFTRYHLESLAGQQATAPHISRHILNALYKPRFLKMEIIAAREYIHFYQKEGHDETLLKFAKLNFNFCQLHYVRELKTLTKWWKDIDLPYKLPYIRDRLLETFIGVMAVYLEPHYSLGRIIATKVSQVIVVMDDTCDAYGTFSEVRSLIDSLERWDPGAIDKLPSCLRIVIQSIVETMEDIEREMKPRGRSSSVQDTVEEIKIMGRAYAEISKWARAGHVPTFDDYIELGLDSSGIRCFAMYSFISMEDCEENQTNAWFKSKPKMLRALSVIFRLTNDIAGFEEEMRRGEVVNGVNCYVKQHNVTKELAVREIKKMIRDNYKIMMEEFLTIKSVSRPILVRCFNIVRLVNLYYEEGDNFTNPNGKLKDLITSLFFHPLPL
It counts as cell-based.

A further test deals with T2, AtTPS06 (Arabidopsis thaliana, UniProt Q84UU9).
T2 sequence (Q84UU9 53-611): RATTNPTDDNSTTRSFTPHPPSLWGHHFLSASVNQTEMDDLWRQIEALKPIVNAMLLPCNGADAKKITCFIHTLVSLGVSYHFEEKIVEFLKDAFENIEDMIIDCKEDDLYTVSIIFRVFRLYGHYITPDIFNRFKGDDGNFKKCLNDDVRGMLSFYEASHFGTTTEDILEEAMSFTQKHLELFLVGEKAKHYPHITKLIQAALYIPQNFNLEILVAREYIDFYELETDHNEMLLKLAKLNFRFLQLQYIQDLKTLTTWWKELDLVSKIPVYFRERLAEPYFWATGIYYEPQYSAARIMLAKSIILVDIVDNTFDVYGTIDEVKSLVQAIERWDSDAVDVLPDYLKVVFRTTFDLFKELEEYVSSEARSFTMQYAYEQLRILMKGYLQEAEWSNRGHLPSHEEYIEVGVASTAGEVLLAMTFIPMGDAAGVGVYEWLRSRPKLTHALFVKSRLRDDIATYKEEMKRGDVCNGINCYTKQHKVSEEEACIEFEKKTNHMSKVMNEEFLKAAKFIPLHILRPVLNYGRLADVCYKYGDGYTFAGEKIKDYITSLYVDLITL
It counts as cell-based.

Another test concerns the target AtTPS29 (Arabidopsis thaliana, UniProt Q9C6W6). It counts as cell-based.
The target of the next test is AtTPS18 (Arabidopsis thaliana, UniProt Q9LUE2). Briefly: X-ray crystal structure. Particulars: AtTPS18-PP complex. It counts as binding.
Sequence of AtTPS18 (Q9LUE2 52-605): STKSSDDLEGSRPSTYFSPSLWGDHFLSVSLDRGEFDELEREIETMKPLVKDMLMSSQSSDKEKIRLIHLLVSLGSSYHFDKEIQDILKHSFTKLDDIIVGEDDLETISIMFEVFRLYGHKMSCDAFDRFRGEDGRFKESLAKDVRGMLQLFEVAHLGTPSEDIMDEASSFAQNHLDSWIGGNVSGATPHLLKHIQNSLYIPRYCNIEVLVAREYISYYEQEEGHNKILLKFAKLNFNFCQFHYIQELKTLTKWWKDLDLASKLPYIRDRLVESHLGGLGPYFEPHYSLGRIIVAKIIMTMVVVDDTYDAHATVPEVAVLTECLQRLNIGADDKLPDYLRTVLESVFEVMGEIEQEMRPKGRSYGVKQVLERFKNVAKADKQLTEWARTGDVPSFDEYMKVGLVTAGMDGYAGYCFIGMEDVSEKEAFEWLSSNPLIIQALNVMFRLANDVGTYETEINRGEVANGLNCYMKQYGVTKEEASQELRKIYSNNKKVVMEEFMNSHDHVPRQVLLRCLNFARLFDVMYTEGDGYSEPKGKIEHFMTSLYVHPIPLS

Sequence of AtTPS19 (Q9LUE0 49-602): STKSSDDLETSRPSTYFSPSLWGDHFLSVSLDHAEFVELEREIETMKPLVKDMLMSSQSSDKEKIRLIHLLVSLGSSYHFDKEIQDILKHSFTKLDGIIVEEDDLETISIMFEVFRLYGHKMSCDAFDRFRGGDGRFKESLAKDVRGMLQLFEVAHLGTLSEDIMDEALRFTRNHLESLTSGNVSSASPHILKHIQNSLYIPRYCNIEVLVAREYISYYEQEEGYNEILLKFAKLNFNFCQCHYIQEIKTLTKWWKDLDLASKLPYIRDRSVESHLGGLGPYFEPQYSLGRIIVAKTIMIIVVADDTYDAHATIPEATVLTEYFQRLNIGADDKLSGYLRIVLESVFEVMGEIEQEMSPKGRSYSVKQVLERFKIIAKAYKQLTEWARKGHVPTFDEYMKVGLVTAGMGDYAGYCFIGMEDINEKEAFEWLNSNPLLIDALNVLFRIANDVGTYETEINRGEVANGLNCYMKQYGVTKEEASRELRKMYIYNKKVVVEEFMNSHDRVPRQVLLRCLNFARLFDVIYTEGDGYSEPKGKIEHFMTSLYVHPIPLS
Sequence of AtTPS29 (Q9C6W6 51-607): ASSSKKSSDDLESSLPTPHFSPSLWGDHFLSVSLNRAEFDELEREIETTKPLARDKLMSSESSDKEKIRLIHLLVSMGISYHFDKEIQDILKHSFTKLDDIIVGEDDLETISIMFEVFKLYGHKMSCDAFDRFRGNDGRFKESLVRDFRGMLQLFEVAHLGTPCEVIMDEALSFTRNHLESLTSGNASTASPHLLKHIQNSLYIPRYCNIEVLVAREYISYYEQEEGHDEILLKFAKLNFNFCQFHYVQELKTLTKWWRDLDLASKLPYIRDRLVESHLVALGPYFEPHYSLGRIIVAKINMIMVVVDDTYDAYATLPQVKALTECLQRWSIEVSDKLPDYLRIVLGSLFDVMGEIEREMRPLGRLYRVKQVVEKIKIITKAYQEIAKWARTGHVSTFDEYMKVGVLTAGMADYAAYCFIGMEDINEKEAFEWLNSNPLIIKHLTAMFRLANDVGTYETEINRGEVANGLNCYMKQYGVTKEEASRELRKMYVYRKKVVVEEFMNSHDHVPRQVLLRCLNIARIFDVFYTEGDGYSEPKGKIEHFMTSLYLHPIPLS

On to `CC(C)=CCC/C(C)=C/CC/C(C)=C/CC/C(C)=C/CC/C(C)=C/COP(=O)(O)OP(=O)(O)O` [GFPP], for which the “GC-MS of products in E. coli” value on AtTPS19 is given as “C8 (the main product of AtTPS19)”; at AtTPS22, “sesterterpenes ... were detected in transgenic E. coli strains harboring AtTPS06, AtTPS22, or AtTPS29”; at AtTPS06, “AtTPS06, a multi-product enzyme, produces more than ten different sesterterpenes from GFPP”; at AtTPS29 it was “sesterterpenes ... were detected in transgenic E. coli strains harboring AtTPS06, AtTPS22, or AtTPS29”.

`O=P(O)(O)OP(=O)(O)O` [PP]: the X-ray crystal structure entry on AtTPS18 is listed as “AtTPS18-PP (PDB code 7BZB)”.
